# Source: patent US9546401B2, “Assays and methods for selecting a treatment regimen for a subject with depression” (The General Hospital Corporation, priority 2011, dated 2017)
# Read-outs that look alike come from different tables or passages of the source.
# System: MDD patients carrying the indicated biomarkers
# Description: Folate levels are classified as either low (<=2.5 ng/ml) or normal; and homocysteine levels as either normal or elevated (>=[…]). The presence or absence of at least one […] allele for the MTHFR gene are entered as a dichotomous variable (present or absent). […] Using folate as an example predicator, the presence or absence of a low serum-folate level along with treatment assignment can be entered in a 2×2, factorial ANOVA, using depression improvement scores (baseline minus endpoint HAM-D-17 scores) as the dependant variable. […] Similar analyses (i.e. separate 2×2 ANOVA's) can be performed substituting the presence of low folate levels for the presence of other predictors as described herein. Similarly, the effect of other predictors can be indicated by the interaction term representing the potential modulating influence of those variables.
# The efficacy effect is determined by measuring the mean change in the HAMD-17 score and HAMD-28 score by the end of Phase I and Phase II, as compared to the baseline.
# [1] = Phase I, BMI < 30 kg/m^2 and SAM/SAH >= median
# [2] = Phase I, BMI >= 30 kg/m^2 and HNE-His >= median
# [3] = Phase I, BMI*treat (interaction of BMI with the treatment)
# [4] = Phase I, MTHFR 677 CC and BMI < 30 kg/m^2
# [5] = Phase I, MTHFR 677 CT or TT and BMI >= 30 kg/m^2
# [6] = Phase I, MTHFR 677 CT or TT and HNE-His >= median
# [7] = Phase I, MTR 2756 AA and BMI < 30 kg/m^2
# [8] = Phase I, MTR 2756 AA and HNE-His < median
# [9] = Phase I, MTR 2756 AA and MTRR 66 AA
# [10] = Phase I, MTR 2756 AA and MTRR 66 AA and SAM/SAH >= median
# [11] = Phase I, MTR 2756 AA and SAM/SAH >= median
# [12] = Phase I, MTR 2756 AG or GG and BMI >= 30 kg/m^2
# [13] = Phase I, MTR 2756 AG or GG and MTRR 66 AG or GG
# [14] = Phase I, MTR 2756 AG or GG and MTRR 66 AG or GG and HNE-His >= median
# [15] = Phase I, MTRR 66 AA and SAM/SAH >= median
# [16] = Phase I, MTRR 66 AG or GG and HNE-His >= median
# [17] = Phase I, SAM/SAH < median and HNE-His >= median
# [18] = Phase I, SAM/SAH >= median and HNE-His < median
# [19] = Phase II, 25 =< BMI < 30 kg/m^2
smiles,measurement,setting,value
"CN1c2c(nc(N)[nH]c2=O)NC[C@@H]1CNc1ccc(C(=O)N[C@@H](CCC(=O)O)C(=O)O)cc1 [6(S)-5-MTHF, 6(S)-5-methyltetrahydrofolate]",Effect on change in HAMD-28 score,"Phase I, BMI < 30 kg/m^2 and HNE-His < median",4.606
same,Effect on change in HAMD-17 score,[1],4.333
same,Effect on change in HAMD-28 score,[1],4.333
same,Effect on change in HAMD-17 score,"Phase I, BMI >= 30 kg/m^2",−6.414
same,Effect on change in HAMD-28 score,"Phase I, BMI >= 30 kg/m^2",−6.677
same,Effect on change in HAMD-17 score,[2],−6.569
same,Effect on change in HAMD-28 score,[2],−6.510
same,Effect on change in HAMD-17 score,"Phase I, BMI >= 30 kg/m^2 and SAM/SAH < median",−5.611
same,Effect on change in HAMD-28 score,"Phase I, BMI >= 30 kg/m^2 and SAM/SAH < median = 2.71 (plasma)",−6.306
same,Effect on change in HAMD-17 score,[3],−0.567
same,Effect on change in HAMD-28 score,[3],−0.668
same,Effect on change in HAMD-17 score,[4],4.500
same,Effect on change in HAMD-28 score,[4],2.769
same,Effect on change in HAMD-17 score,"Phase I, MTHFR 677 CC and HNE-His < median",−1.471
same,Effect on change in HAMD-28 score,"Phase I, MTHFR 677 CC and HNE-His < median = 3.28 (plasma)",−2.821
same,Effect on change in HAMD-17 score,[5],−8.738
same,Effect on change in HAMD-28 score,[5],−9.857
same,Effect on change in HAMD-17 score,[6],−7.143
same,Effect on change in HAMD-28 score,[6],−6.929
same,Effect on change in HAMD-17 score,"Phase I, MTR 2756 AA",−0.621
same,Effect on change in HAMD-28 score,"Phase I, MTR 2756 AA",0.409
same,Effect on change in HAMD-17 score,[7],4.476
same,Effect on change in HAMD-28 score,[7],5.524
same,Effect on change in HAMD-17 score,[8],0.306
same,Effect on change in HAMD-28 score,[8],0.639
same,Effect on change in HAMD-17 score,[9],3.125
same,Effect on change in HAMD-28 score,[9],5.000
same,Effect on change in HAMD-17 score,"Phase I, MTR 2756 AA and MTRR 66 AA and HNE-His < median",3.000
same,Effect on change in HAMD-28 score,"Phase I, MTR 2756 AA and MTRR 66 AA and HNE-His < median = 3.28 (plasma)",4.200
same,Effect on change in HAMD-17 score,[10],−0.400
same,Effect on change in HAMD-28 score,[10],−1.000
same,Effect on change in HAMD-17 score,[11],−1.556
same,Effect on change in HAMD-28 score,[11],−1.278
same,Effect on change in HAMD-17 score,[12],−12.905
same,Effect on change in HAMD-28 score,[12],−18.762
same,Effect on change in HAMD-17 score,"Phase I, MTR 2756 AG or GG and HNE-His >= median",−7.125
same,Effect on change in HAMD-28 score,"Phase I, MTR 2756 AG or GG and HNE-His >= median = 3.28 (plasma)",−9.950
same,Effect on change in HAMD-17 score,[13],−6.900
same,Effect on change in HAMD-28 score,[13],−9.996
same,Effect on change in HAMD-17 score,[14],−7.200
same,Effect on change in HAMD-28 score,[14],−9.800
same,Effect on change in HAMD-17 score,"Phase I, MTR 2756 AG or GG and MTRR 66 AG or GG and SAM/SAH < median",−9.000
same,Effect on change in HAMD-28 score,"Phase I, MTR 2756 AG or GG and MTRR 66 AG or GG and SAM/SAH < median = 2.71 (plasma)",−12.741
same,Effect on change in HAMD-17 score,"Phase I, MTR 2756 AG or GG and SAM/SAH < median",−9.800
same,Effect on change in HAMD-28 score,"Phase I, MTR 2756 AG or GG and SAM/SAH < median = 2.71 (plasma)",−14.993
same,Effect on change in HAMD-17 score,"Phase I, MTR 2756 AG/GG",−7.143
same,Effect on change in HAMD-28 score,"Phase I, MTR 2756 AG/GG",−10.926
same,Effect on change in HAMD-17 score,"Phase I, MTRR 66 AA and HNE-His < median",−1.167
same,Effect on change in HAMD-28 score,"Phase I, MTRR 66 AA and HNE-His < median = 3.28 (plasma)",−4.167
same,Effect on change in HAMD-17 score,[15],−0.125
same,Effect on change in HAMD-28 score,[15],0.500
same,Effect on change in HAMD-17 score,[16],−5.958
same,Effect on change in HAMD-28 score,[16],−6.975
same,Effect on change in HAMD-17 score,"Phase I, MTRR 66 AG or GG and SAM/SAH < median",−5.062
same,Effect on change in HAMD-28 score,"Phase I, MTRR 66 AG or GG and SAM/SAH < median = 2.71 (plasma)",−6.498
same,Effect on change in HAMD-17 score,[17],−3.670
same,Effect on change in HAMD-28 score,[17],−4.227
same,Effect on change in HAMD-17 score,"Phase I, SAM/SAH >= med",−0.946
same,Effect on change in HAMD-28 score,"Phase I, SAM/SAH >= med = 2.71 (plasma)",−1.148
same,Effect on change in HAMD-17 score,[18],−0.250
same,Effect on change in HAMD-28 score,[18],−0.750
same,Effect on change in HAMD-28 score,"Phase I, SAM/SAH*treat, first line under HAMD28",0.495
same,Effect on change in HAMD-17 score,"Phase I, baseHAMD-17*treat (interaction of base HAMD-17 with the treatment)",0.165
same,Effect on change in HAMD-17 score,[19],2.000
same,Effect on change in HAMD-28 score,[19],0.000
same,Effect on change in HAMD-17 score,"Phase II, BMI < 25",−1.400
